Assay results published in the NIST ThermoML archive (doi:10.1016/j.fluid.2010.01.027).
Numbers after ± are expanded uncertainties.

Assay: wn = mass fraction of the nth substance listed
Conditions: Gas, sonar gas analyzer

For `FC(F)(F)C(F)(F)C(F)(F)F` [octafluoropropane] + FC(F)(F)C(F)(F)C(F)(F)C(F)(F)F, the speed of sound (248.2 K, 10 kPa, w1 = 0.83) was 105.12 ± 1.2 m/s, the speed of sound (248.2 K, 13 kPa, w1 = 0.83) was 105.03 ± 1.2 m/s and the speed of sound (248.2 K, 20 kPa, w1 = 0.83) was 104.84 ± 1.2 m/s. For the same compound, the speed of sound (248.2 K, 27 kPa, w1 = 0.83) was 104.58 ± 1.2 m/s, the speed of sound (248.2 K, 30 kPa, w1 = 0.83) was 104.45 ± 1.2 m/s and the speed of sound (248.2 K, 33 kPa, w1 = 0.83) was 104.36 ± 1.2 m/s. It also gave a speed of sound (248.2 K, 40 kPa, w1 = 0.83) of 104.12 ± 1.2 m/s, a speed of sound (248.2 K, 47 kPa, w1 = 0.83) of 103.84 ± 1.2 m/s and a speed of sound (248.2 K, 50 kPa, w1 = 0.83) of 103.75 ± 1.2 m/s. The speed of sound (248.2 K, 53 kPa, w1 = 0.83) was 103.57 ± 1.2 m/s, the speed of sound (248.2 K, 60 kPa, w1 = 0.83) was 103.27 ± 1.2 m/s and the speed of sound (248.2 K, 67 kPa, w1 = 0.83) was 103.07 ± 1.2 m/s. For the same compound, the speed of sound (259.2 K, 10 kPa, w1 = 0.397) was 102.59 ± 1.2 m/s, the speed of sound (259.2 K, 10 kPa, w1 = 0.83) was 107.4 ± 1.2 m/s and the speed of sound (259.2 K, 20 kPa, w1 = 0.397) was 102.16 ± 1.2 m/s. The speed of sound (259.2 K, 20 kPa, w1 = 0.83) was 107.18 ± 1.2 m/s, the speed of sound (259.2 K, 30 kPa, w1 = 0.397) was 101.68 ± 1.2 m/s and the speed of sound (259.2 K, 30 kPa, w1 = 0.83) was 106.95 ± 1.2 m/s. For the same compound, the speed of sound (259.2 K, 50 kPa, w1 = 0.397) was 101.06 ± 1.2 m/s, the speed of sound (259.2 K, 50 kPa, w1 = 0.83) was 106.3 ± 1.2 m/s and the speed of sound (259.2 K, 70 kPa, w1 = 0.397) was 100.12 ± 1.2 m/s. The speed of sound (259.2 K, 70 kPa, w1 = 0.83) was 105.81 ± 1.2 m/s, the speed of sound (259.2 K, 100 kPa, w1 = 0.83) was 104.56 ± 1.2 m/s and the speed of sound (259.2 K, 150 kPa, w1 = 0.83) was 102.68 ± 1.2 m/s. It also gave a speed of sound (259.2 K, 200 kPa, w1 = 0.83) of 101.95 ± 1.2 m/s, a speed of sound (271.3 K, 10 kPa, w1 = 0.83) of 109.58 ± 1.2 m/s and a speed of sound (271.3 K, 20 kPa, w1 = 0.83) of 109.17 ± 1.2 m/s. It also gave a speed of sound (271.3 K, 30 kPa, w1 = 0.83) of 108.68 ± 1.2 m/s, a speed of sound (271.3 K, 50 kPa, w1 = 0.83) of 107.95 ± 1.2 m/s and a speed of sound (271.3 K, 70 kPa, w1 = 0.83) of 107.66 ± 1.2 m/s. For the same compound, the speed of sound (271.3 K, 100 kPa, w1 = 0.83) was 106.4 ± 1.2 m/s, the speed of sound (271.3 K, 150 kPa, w1 = 0.83) was 104.9 ± 1.2 m/s and the speed of sound (271.3 K, 200 kPa, w1 = 0.83) was 103.44 ± 1.2 m/s. The speed of sound (271.3 K, 250 kPa, w1 = 0.83) was 102.59 ± 1.2 m/s, the speed of sound (271.4 K, 10 kPa, w1 = 0.397) was 104.64 ± 1.2 m/s and the speed of sound (271.4 K, 20 kPa, w1 = 0.397) was 104.3 ± 1.2 m/s. For the same compound, the speed of sound (271.4 K, 30 kPa, w1 = 0.397) was 103.82 ± 1.2 m/s, the speed of sound (271.4 K, 50 kPa, w1 = 0.397) was 103.1 ± 1.2 m/s and the speed of sound (271.4 K, 70 kPa, w1 = 0.397) was 102.4 ± 1.2 m/s. For the same compound, the speed of sound (271.4 K, 100 kPa, w1 = 0.397) was 101.14 ± 1.2 m/s, the speed of sound (271.4 K, 150 kPa, w1 = 0.397) was 99.12 ± 1.2 m/s and the speed of sound (283.1 K, 10 kPa, w1 = 0.397) was 106.56 ± 1.2 m/s. For the same compound, the speed of sound (283.1 K, 10 kPa, w1 = 0.83) was 112.12 ± 1.2 m/s, the speed of sound (283.1 K, 20 kPa, w1 = 0.397) was 106.36 ± 1.2 m/s and the speed of sound (283.1 K, 20 kPa, w1 = 0.83) was 111.72 ± 1.2 m/s. It also gave a speed of sound (283.1 K, 30 kPa, w1 = 0.397) of 105.98 ± 1.2 m/s, a speed of sound (283.1 K, 30 kPa, w1 = 0.83) of 111.47 ± 1.2 m/s and a speed of sound (283.1 K, 50 kPa, w1 = 0.397) of 105.5 ± 1.2 m/s. For the same compound, the speed of sound (283.1 K, 50 kPa, w1 = 0.83) was 111.19 ± 1.2 m/s, the speed of sound (283.1 K, 70 kPa, w1 = 0.397) was 104.76 ± 1.2 m/s and the speed of sound (283.1 K, 70 kPa, w1 = 0.83) was 110.59 ± 1.2 m/s. The speed of sound (283.1 K, 100 kPa, w1 = 0.397) was 103.71 ± 1.2 m/s, the speed of sound (283.1 K, 100 kPa, w1 = 0.83) was 109.75 ± 1.2 m/s and the speed of sound (283.1 K, 150 kPa, w1 = 0.397) was 101.86 ± 1.2 m/s. For the same compound, the speed of sound (283.1 K, 150 kPa, w1 = 0.83) was 108.4 ± 1.2 m/s, the speed of sound (283.1 K, 200 kPa, w1 = 0.397) was 100.08 ± 1.2 m/s and the speed of sound (283.1 K, 200 kPa, w1 = 0.83) was 106.92 ± 1.2 m/s. The speed of sound (283.1 K, 250 kPa, w1 = 0.83) was 105.34 ± 1.2 m/s, the speed of sound (283.1 K, 297 kPa, w1 = 0.83) was 103.72 ± 1.2 m/s and the speed of sound (283.1 K, 350 kPa, w1 = 0.83) was 101.99 ± 1.2 m/s. The speed of sound (283.1 K, 400 kPa, w1 = 0.83) was 100.1 ± 1.2 m/s, the speed of sound (294 K, 10 kPa, w1 = 0.397) was 109.01 ± 1.2 m/s and the speed of sound (294 K, 20 kPa, w1 = 0.397) was 108.7 ± 1.2 m/s. It also gave a speed of sound (294 K, 30 kPa, w1 = 0.397) of 108.4 ± 1.2 m/s, a speed of sound (294 K, 50 kPa, w1 = 0.397) of 107.67 ± 1.2 m/s and a speed of sound (294 K, 70 kPa, w1 = 0.397) of 107.07 ± 1.2 m/s. For the same compound, the speed of sound (294 K, 100 kPa, w1 = 0.397) was 106.22 ± 1.2 m/s, the speed of sound (294 K, 150 kPa, w1 = 0.397) was 104.61 ± 1.2 m/s and the speed of sound (294 K, 200 kPa, w1 = 0.397) was 103.01 ± 1.2 m/s. The speed of sound (294.1 K, 10 kPa, w1 = 0.83) was 114.96 ± 1.2 m/s, the speed of sound (294.1 K, 20 kPa, w1 = 0.83) was 114.62 ± 1.2 m/s and the speed of sound (294.1 K, 30 kPa, w1 = 0.83) was 114.35 ± 1.2 m/s. The speed of sound (294.1 K, 50 kPa, w1 = 0.83) was 113.75 ± 1.2 m/s, the speed of sound (294.1 K, 70 kPa, w1 = 0.83) was 113.21 ± 1.2 m/s and the speed of sound (294.1 K, 100 kPa, w1 = 0.83) was 112.3 ± 1.2 m/s. The speed of sound (294.1 K, 150 kPa, w1 = 0.83) was 111 ± 1.2 m/s, the speed of sound (294.1 K, 200 kPa, w1 = 0.83) was 109.85 ± 1.2 m/s and the speed of sound (301.4 K, 10 kPa, w1 = 0.83) was 116.15 ± 1.2 m/s. The speed of sound (301.4 K, 20 kPa, w1 = 0.83) was 116.05 ± 1.2 m/s, the speed of sound (301.4 K, 30 kPa, w1 = 0.83) was 115.78 ± 1.2 m/s and the speed of sound (301.4 K, 50 kPa, w1 = 0.83) was 115.29 ± 1.2 m/s. The speed of sound (301.4 K, 70 kPa, w1 = 0.83) was 114.72 ± 1.2 m/s, the speed of sound (301.4 K, 100 kPa, w1 = 0.83) was 114.03 ± 1.2 m/s and the speed of sound (301.4 K, 150 kPa, w1 = 0.83) was 112.72 ± 1.2 m/s. It also gave a speed of sound (301.4 K, 200 kPa, w1 = 0.83) of 111.59 ± 1.2 m/s, a speed of sound (302.1 K, 10 kPa, w1 = 0.397) of 110.14 ± 1.2 m/s and a speed of sound (302.1 K, 20 kPa, w1 = 0.397) of 109.74 ± 1.2 m/s. The speed of sound (302.1 K, 30 kPa, w1 = 0.397) was 109.67 ± 1.2 m/s, the speed of sound (302.1 K, 50 kPa, w1 = 0.397) was 109.29 ± 1.2 m/s and the speed of sound (302.1 K, 70 kPa, w1 = 0.397) was 108.73 ± 1.2 m/s. For the same compound, the speed of sound (302.1 K, 100 kPa, w1 = 0.397) was 107.89 ± 1.2 m/s.
